In one series the test system is HaCat cells. Put plainly: m6A methylation level of human HaCat keratinocytes, EpiQuik m6A RNA methylation quantification kit (Example 20). In kind it is cell-based. To be noted: for m6A fold change relative to control group 1 / fold induction at 0.05 µM: HaCat cells, 24 hours; for m6A methylation level of human HaCat keratinocytes / fold induction at 0.05 µM: 50 nM drug alone; for fold induction at 0.05 µM: Homo sapiens, read-out: m6A fold change relative to control group 1. The procedure: HaCat cells were cultured in a DMEM culture medium containing 10% fetal bovine serum, 100 U/mL penicillin, and 100 μg/mL streptomycin. Culture dishes were placed in an incubator containing 5% CO2 for culture at 37° C. for 24 hours. An equal volume of DMSO was added in control group 1, 50 nM sorafenib, capecitabine, docetaxel, and osimertinib were respectively added in control groups A, B, C, and D, and 400 nM test compounds or nicotinamide were respectively added in sample groups A1-17, B1-17, C1-17, and D1-17 after the addition of 50 nM corresponding compounds. The cells were continuously cultured for 24 hours, washed with PBS, and then collected by high-speed centrifugation. Total RNA was extracted using a Trizol reagent (Sigma Aldrich), and RNA m6A methylation of a sample was quantitatively detected using an EpiQuik m6A RNA methylation quantification kit. The concentrations of positive control samples for a standard curve were 0.01 ng/μl, 0.02 ng/μl, 0.05 ng/μl, 0.1 ng/μl, 0.2 ng/μl, and 0.5 ng/μl. The absorbance at 450 nm was read using a microplate reader (Tecan GENios). A quantitative calculation formula for m6A is as follows:
m6A (ng)=(absorbance of sample well−absorbance of background well)/slope of standard curve m6A (%)=m6A (ng)/RNA amount of sample (ng)*100%.

Another series deals with HaCaT keratinocytes. Put plainly: Inhibition of HBEGF-induced differentiation of HaCaT keratinocytes, marker mRNA by RT-PCR (Example 21). Format: cell-based, human. To be noted: 2.5 ng/mL human recombinant HBEGF protein + test compound, 24 hours. The procedure:
Human HaCaT keratinocytes were cultured in a DMEM culture medium containing 10% fetal bovine serum, 100 U/mL penicillin, and 100 µg/mL streptomycin. The cells were seeded into a 96-well plate at a density of […] and placed in an incubator containing 5% carbon dioxide for culture at 37° C. for 24 hours. An equal volume of DMSO was added into control well 1, a 2.5 ng/mL human recombinant HBEGF protein (Abcam, ab205523) was added into control well 2, and a 2.5 ng/mL human recombinant HBEGF protein and corresponding concentrations of test compounds were added into sample wells. The cells were continuously cultured for 24 hours, washed with PBS, and then collected by high-speed centrifugation. Total RNA was extracted using a Trizol reagent (Sigma Aldrich). 1 μg of RNA was reverse-transcribed into cDNA using a cDNA reverse transcription kit (Transgene Biotech, AT311-03). 1.25 μL of a primer (with a primer sequence shown in Table 2), 10 μL of an iTag Universal SYBR Green supermix (Bio-Rad, 172-S125), and an appropriate amount of DEPC ultrapure water were added to formulate 20 μL of a reaction solution to perform an RT-PCR reaction. Upon completion of the reaction, the reaction solution was subjected to agarose gel electrophoresis to determine the mRNA expression amounts of keratinocyte differentiation markers KRT1, KRT10, Loricrin, and Involucrin.

The next series relates to paw plantar skin of rats. In words: Rat models with hand-foot skin reaction, topical ointment (Example 22). To be noted: for Incidence rate / Incidence rate (successful modeling rate for hand-foot skin reaction): 30 days; for Incidence rate (successful modeling rate for hand-foot skin reaction): modeling drug alone by gavage once daily, no ointment, SD rats. Format: in vivo, SD rats. How it is done:
After adaptive feeding for one week, SD rats (with a body weight of approximately 200 g) were randomly divided into groups according to the body weight, with 12 rats in each group. Modeling drugs (including sorafenib, erlotinib, afatinib, and osimertinib) were respectively dissolved in a solution containing 5% of DMSO, 45% of PEG400, and 50% of H2O, and the modeling drugs were diluted to required concentrations and then administered once daily by gavage at doses shown in Table 3. After administration by gavage for 1 hour, 0.05 g of ointments containing different mass proportions of test compounds were evenly applied to left paws of the rats, a blank matrix ointment was applied to right paws of the rats to serve as a self-control, and no ointment was applied to the rats in a blank control group. After drug application, four limbs were continuously immobilized for 2 hours, then wiped with clean water to remove the residual drugs, removed from immobilization, and restored to free movement. The modeling drugs, the blank matrix ointment, and the ointments containing the test compounds were all administered once daily. After continuous administration for 30 days, the rats were euthanized, and paw plantar skin tissues were collected, fixed in 10% neutral formalin, […]. The ointments for the test compounds were prepared by mixing the compounds, white beeswax, white petrolatum, and light liquid paraffin in specific ratios (weight ratios of 3 ointments were respectively 1:18:58:23, 3:18:57:22, and 10:20:40:30). The blank matrix ointment was prepared by mixing white beeswax, white petrolatum, and light liquid paraffin in a specific ratio (weight ratio of 18:60:22).
Tissue staining: After dewaxing and rehydration, the paw plantar skin tissue sections of the above rats were stained in a hematoxylin solution for several minutes, cleaned, and placed in 1% acid alcohol for soaking until the sections faded to light blue-red. After cleaning with running water for 5 minutes, the sections were stained with eosin for 2-3 minutes, cleaned to remove excess dyes, dehydrated, then permeabilized by adding xylene for several minutes, and sealed and fixed with a neutral resin. The stratum corneum was observed under an optical microscope, and the thickness of the epidermal stratum corneum was measured using Dmetrix software.
Immunohistochemical staining: After dewaxing and hydration, the paw plantar skin tissue sections of the above rats were incubated with 3% H2O2 at room temperature for 30 minutes and blocked with 10% goat serum for 30 minutes after antigen retrieval. A KRT1 antibody (Abcam, ab93652) and a Loricrin antibody (Abcam, ab183646) were added dropwise, the sections were incubated overnight at 4° C., and an HRP secondary antibody (ZSGB-BIO, PV-6001) and a DAB kit (ZSG-BIO, ZLI9017) were added for color development. The sections were re-stained with hematoxylin, cleaned, and sealed and fixed with a neutral resin, and the expression amounts of KRT1 and Loricrin were observed under an optical microscope.
An incidence rate calculation method involves a proportion of animals in each group meeting the above criteria for determining successful modeling, that is, incidence rate=(number of successfully modeled rats/total number of rats in the group)*100%. […]

The mark [1] stands for this setting: 50 nM capecitabine + 400 nM test compound.
Setting [2] is: 50 nM docetaxel + 400 nM test compound.
Setting [3] is: 50 nM osimertinib + 400 nM test compound.
Setting [4] is: 50 nM sorafenib + 400 nM test compound.
[5] abbreviates: successfully modeled rats, modeling drug.

Data on four compounds can be found in patent US20260226006A1, “INDOLE COMPOUND, PREPARATION METHOD THEREFOR AND USE THEREOF” (SUZHOU MERNA THERAPEUTICS CO. LTD, priority 2023, published 2026).

Structures are written as SMILES.

Turning to `NC(=O)C1CCCc2c1[nH]c1ccc(Cl)cc21` (stereo not drawn) [Compound 2, 6-chloro-2,3,4,9-tetrahydro-1H-carbazole-1-carboxamide], the “abnormal increase in the RNA m6A level of human keratinocytes caused by chemotherapeutic drugs and multikinase inhibitors” value in the series with HaCat cells (400 nM compound after 50 nM drug) was “effectively inhibit”. Further, the “m6A fold change relative to control group 1” value in the series on HaCat cells (setting [1]) is reported as 2.3; in the series on HaCat cells (setting [2]) it was 3.3; in the series with HaCat cells (setting [3]), 2.2; in the series on HaCat cells (setting [4]) it was 2.4. Also, the “mRNA expression amounts of HaCaT differentiation markers KRT1, KRT10, Loricrin, and Involucrin” value in the series on HaCaT keratinocytes is “significantly inhibited”. Besides, the Incidence rate in the series with paw plantar skin of rats (afatinib 50 mg/kg, 1% compound ointment on left paw, left paw) is given as 2/12 (17%); in the series on paw plantar skin of rats (afatinib 50 mg/kg, 1% compound ointment on left paw, right paw (blank matrix ointment)), 7/12 (58%); with paw plantar skin of rats (afatinib 50 mg/kg, 3% compound ointment on left paw, left paw), 2/12 (17%); in the series on paw plantar skin of rats (afatinib 50 mg/kg, 3% compound ointment on left paw, right paw (blank matrix ointment)), 5/12 (42%); with paw plantar skin of rats (afatinib 50 mg/kg, 10% compound ointment on left paw, left paw), 1/12 (8%); in the series with paw plantar skin of rats (afatinib 50 mg/kg, 10% compound ointment on left paw, right paw (blank matrix ointment)) it was 5/12 (42%). Besides, the Incidence rate was 3/12 (25%) in the series with paw plantar skin of rats (erlotinib 70 mg/kg, 1% compound ointment on left paw, left paw); 10/12 (83%) in the series with paw plantar skin of rats (erlotinib 70 mg/kg, 1% compound ointment on left paw, right paw (blank matrix ointment)); 2/12 (17%) in the series on paw plantar skin of rats (erlotinib 70 mg/kg, 3% compound ointment on left paw, left paw); 4/12 (33%) with paw plantar skin of rats (erlotinib 70 mg/kg, 3% compound ointment on left paw, right paw (blank matrix ointment)); 1/12 (8%) in the series on paw plantar skin of rats (erlotinib 70 mg/kg, 10% compound ointment on left paw, left paw); 4/12 (33%) in the series with paw plantar skin of rats (erlotinib 70 mg/kg, 10% compound ointment on left paw, right paw (blank matrix ointment)). Further, the Incidence rate with paw plantar skin of rats (osimertinib 60 mg/kg, 1% compound ointment on left paw, left paw) is 2/12 (17%); in the series on paw plantar skin of rats (osimertinib 60 mg/kg, 1% compound ointment on left paw, right paw (blank matrix ointment)), 9/12 (75%); in the series with paw plantar skin of rats (osimertinib 60 mg/kg, 3% compound ointment on left paw, right paw (blank matrix ointment)), 4/12 (33%); in the series on paw plantar skin of rats (osimertinib 60 mg/kg, 10% compound ointment on left paw, left paw), 0/12 (0%); in the series with paw plantar skin of rats (osimertinib 60 mg/kg, 10% compound ointment on left paw, right paw (blank matrix ointment)), 3/12 (25%); in the series on paw plantar skin of rats (sorafenib 100 mg/kg, 1% compound ointment on left paw, left paw), 3/12 (25%). The Incidence rate in the series on paw plantar skin of rats (sorafenib 100 mg/kg, 1% compound ointment on left paw, right paw (blank matrix ointment)) is 8/12 (67%); with paw plantar skin of rats (sorafenib 100 mg/kg, 3% compound ointment on left paw, left paw), 1/12 (8%); in the series with paw plantar skin of rats (sorafenib 100 mg/kg, 3% compound ointment on left paw, right paw (blank matrix ointment)), 5/12 (42%); with paw plantar skin of rats (sorafenib 100 mg/kg, 10% compound ointment on left paw, left paw), 0/12 (0%); in the series on paw plantar skin of rats (sorafenib 100 mg/kg, 10% compound ointment on left paw, right paw (blank matrix ointment)), 5/12 (42%). For the same compound, the “incidence rate of hand-foot skin reaction at a drug application site” value with paw plantar skin of rats (compounds at a mass content of 1% in ointment) was “significantly decrease”. Further, in the series with paw plantar skin of rats (compounds at mass contents of 3% and 10% in ointment), the “incidence rate of hand-foot skin reaction in all paws of the rats” value is reported as “significantly decrease”. For the same compound, the “formation of blisters, inflammatory cell infiltration in the dermis and skin congestion (pathological scoring)” value in the series on paw plantar skin of rats (paw plantar skin of modeled rats, topical ointment) is on record as “effectively improve”. The “differentiation of keratinocytes both in vitro and in vivo” value in the series with paw plantar skin of rats (summary of Examples 21 and 22) is on record as “effectively inhibit”. Moreover, the “stratum corneum thickness of the paw plantar skin of the modeled rats” value in the series on paw plantar skin of rats (topical ointment, modeled rats) is given as “effectively decrease”.
As to `CNC(=O)c1cc(Oc2ccc(NC(=O)Nc3ccc(Cl)c(C(F)(F)F)c3)cc2)ccn1` [Sorafenib, sorafenib, reference compound], in the series on HaCat cells, the “m6A methylation level of human HaCat keratinocytes” value is recorded as “significantly increase” and the fold induction at 0.05 µM came out at 4.5. Also, the “Incidence rate (successful modeling rate for hand-foot skin reaction)” value in the series with paw plantar skin of rats is reported as 9/12 (75%). The “Incidence rate (successful modeling rate for hand-foot skin reaction)” value in the series with paw plantar skin of rats (listed as sorafenib) worked out at 75%. In addition, in the series with paw plantar skin of rats (setting [5]), the “KRT1 and Loricrin in tissues (immunohistochemical staining)” value was “significantly increased”; the “stratum corneum thickness of the paw plantar skin” value was “significantly higher than that of normal rats”.
Take `C=CC(=O)Nc1cc(Nc2nccc(-c3cn(C)c4ccccc34)n2)c(OC)cc1N(C)CCN(C)C` [Osimertinib, osimertinib, reference compound]: in the series with HaCat cells, the “m6A methylation level of human HaCat keratinocytes” value was “significantly increase” and the fold induction at 0.05 µM was 4.8. In addition, in the series on paw plantar skin of rats (rat, in vivo), the “KRT1 and Loricrin in tissues (immunohistochemical staining)” value is “significantly increased”; the “stratum corneum thickness of the paw plantar skin” value is recorded as “significantly higher than that of normal rats”.
As to `NC(=O)c1cccnc1` [Nicotinamide, nicotinamide], the “m6A fold change relative to control group 1” value was 4.5 with HaCat cells (setting [1]), 5.4 in the series on HaCat cells (setting [2]), 5.0 with HaCat cells (setting [3]) and 4.7 with HaCat cells (setting [4]).
